Measurements from patent US20210395239A1 (Hoffmann-La Roche Inc., priority 2018, published 2021).

Biological target: T1, human TLR7 (Homo sapiens, UniProt Q9NYK1)
T1 construct: host or cells: HEK293 (HEK-Blue hTLR7)
T1 sequence (Q9NYK1 27-1049): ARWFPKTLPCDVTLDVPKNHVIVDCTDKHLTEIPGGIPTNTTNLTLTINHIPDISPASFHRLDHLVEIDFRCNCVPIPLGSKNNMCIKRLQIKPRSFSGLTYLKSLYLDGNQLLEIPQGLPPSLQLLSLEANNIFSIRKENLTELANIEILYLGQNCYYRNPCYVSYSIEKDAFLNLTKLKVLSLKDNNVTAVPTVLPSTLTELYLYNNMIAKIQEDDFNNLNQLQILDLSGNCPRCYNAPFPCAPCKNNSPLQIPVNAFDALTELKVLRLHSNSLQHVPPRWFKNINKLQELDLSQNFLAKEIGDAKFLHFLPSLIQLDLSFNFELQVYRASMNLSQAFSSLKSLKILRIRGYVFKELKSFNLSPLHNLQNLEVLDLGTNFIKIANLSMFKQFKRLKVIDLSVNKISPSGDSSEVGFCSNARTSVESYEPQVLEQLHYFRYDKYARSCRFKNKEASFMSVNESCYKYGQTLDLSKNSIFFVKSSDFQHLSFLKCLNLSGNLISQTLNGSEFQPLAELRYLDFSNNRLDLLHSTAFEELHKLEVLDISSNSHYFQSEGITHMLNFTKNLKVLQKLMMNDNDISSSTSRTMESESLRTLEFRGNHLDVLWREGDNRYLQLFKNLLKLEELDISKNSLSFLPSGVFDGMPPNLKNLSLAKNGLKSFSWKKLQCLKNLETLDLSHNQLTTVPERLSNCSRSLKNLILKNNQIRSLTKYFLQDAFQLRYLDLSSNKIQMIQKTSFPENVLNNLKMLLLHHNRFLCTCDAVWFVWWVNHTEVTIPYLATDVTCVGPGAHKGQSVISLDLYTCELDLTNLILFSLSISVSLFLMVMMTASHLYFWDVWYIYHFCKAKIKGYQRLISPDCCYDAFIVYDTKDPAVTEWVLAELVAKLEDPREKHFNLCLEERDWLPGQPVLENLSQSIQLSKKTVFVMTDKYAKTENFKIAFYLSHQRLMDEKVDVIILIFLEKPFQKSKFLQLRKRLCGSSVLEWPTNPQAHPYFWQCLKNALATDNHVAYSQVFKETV
Experiment: HEK293-Blue-hTLR-7 cells assay (SEAP reporter, R848 stimulation)
Type: cell-based
Settings: HEK293-Blue-hTLR7 cells, R848, 20 hrs; read-out: HEK/hTLR7 IC50
Method in brief: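 HEK293-Blue-hTLR7 cells (NF-κB/AP-1-driven SEAP reporter) were stimulated with R848 alongside serially diluted compound at 1% final DMSO for 20 h at 37 °C. Supernatant SEAP was then developed with QUANTI-Blue for 2 h at 37 °C and absorbance read at 620–655 nm; antagonism is measured as reduced reporter signal.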

| SMILES | IC50 |
| --- | --- |
| Cc1cc(N2CCN(C[C@H]3CN(c4ccc(C#N)c5ncccc45)C[C@@H](C)O3)CC2)nc(N2CCC(N)C(F)(F)C2)n1 (stereo partly drawn) [Example 86, 5-[(2S,6R)-2-[[4-[2-(4-amino-3,3-difluoro-1-piperidyl)-6-methyl-pyrimidin-4-yl]piperazin-1-yl]methyl]-6-methyl-morpholin-4-yl]quinoline-8-carbonitrile] | 22 nM |
| Cc1cc(N2CCN(C[C@H]3CN(c4ccc(C#N)c5ncccc45)C[C@@H](C)O3)CC2)nc(N[C@@H]2CNC[C@@H]2F)n1 [Example 71, 5-[(2S,6R)-2-[[4-[2-[[(3R,4S)-4-fluoropyrrolidin-3-yl]amino]-6-methyl-pyrimidin-4-yl]piperazin-1-yl]methyl]-6-methyl-morpholin-4-yl]quinoline-8-carbonitrile] | 45 nM |
| CO[C@H]1CN(c2nc(C)cc(N3CCN(C[C@H]4CN(c5ccc(C#N)c6ncccc56)C[C@@H](C)O4)CC3)n2)CCC1N (stereo in doubt) [Example 90, 5-[(2S,6R)-2-[[4-[2-[(3S,4S)-4-amino-3-methoxy-1-piperidyl]-6-methyl-pyrimidin-4-yl]piperazin-1-yl]methyl]-6-methyl-morpholin-4-yl]quinoline-8-carbonitrile] | 21 nM |
| Cc1cc(N2CCN(C[C@H]3CN(c4ccc(C#N)c5ncccc45)C[C@@H](C)O3)CC2)nc(N2C[C@@H](N)C[C@@H](F)C2)n1 [Example 77, 5-[(2S,6R)-2-[[4-[2-[(3S,5R)-3-amino-5-fluoro-1-piperidyl]-6-methyl-pyrimidin-4-yl]piperazin-1-yl]methyl]-6-methyl-morpholin-4-yl]quinoline-8-carbonitrile] | 26 nM |
| Cc1cc(N2CCN(C[C@H]3CN(c4ccc(C#N)c5ncccc45)C[C@@H](C)O3)CC2)nc(N2C[C@H](N)C[C@H](F)C2)n1 (relative stereo) [Example 74, 5-[(2R,6S)-2-methyl-6-[[4-[6-methyl-2-[cis-3-amino-5-fluoro-1-piperidyl]pyrimidin-4-yl]piperazin-1-yl]methyl]morpholin-4-yl]quinoline-8-carbonitrile] | 24 nM |
| COC1CNCC1Nc1nc(C)cc(N2CCN(C[C@H]3CN(c4ccc(C#N)c5ncccc45)C[C@@H](C)O3)CC2)n1 (stereo in doubt) [Example 70, 5-[(2S,6R)-2-[[4-[2-[[(3R,4R)-4-methoxypyrrolidin-3-yl]amino]-6-methyl-pyrimidin-4-yl]piperazin-1-yl]methyl]-6-methyl-morpholin-4-yl]quinoline-8-carbonitrile] | 70 nM |
| Cc1cc(N2CCN(C[C@H]3CN(c4ccc(C#N)c5ncccc45)C[C@@H](C)O3)CC2)nc(N2CC[C@@H](N)C(F)C2)n1 (stereo in doubt) [Example 82, 5-[(2S,6R)-2-[[4-[2-[(3R,4R)-4-amino-3-fluoro-1-piperidyl]-6-methyl-pyrimidin-4-yl]piperazin-1-yl]methyl]-6-methyl-morpholin-4-yl]quinoline-8-carbonitrile] | 29 nM |
| Cc1cc(N2CCN(C[C@H]3CN(c4ccc(C#N)c5ncccc45)C[C@@H](C)O3)CC2)nc(N2CC(N)CC(F)(F)C2)n1 (stereo partly drawn) [Example 80, 5-[(2S,6R)-2-[[4-[2-(5-amino-3,3-difluoro-1-piperidyl)-6-methyl-pyrimidin-4-yl]piperazin-1-yl]methyl]-6-methyl-morpholin-4-yl]quinoline-8-carbonitrile] | 107 nM |
| Cc1cc(N2CCN(C[C@H]3CN(c4ccc(C#N)c5ncccc45)C[C@@H](C)O3)CC2)nc(N2CCNC(C(C)(C)O)C2)n1 (stereo partly drawn) [Example 81, 5-[(2S,6R)-2-[[4-[2-[3-(1-hydroxy-1-methyl-ethyl)piperazin-1-yl]-6-methyl-pyrimidin-4-yl]piperazin-1-yl]methyl]-6-methyl-morpholin-4-yl]quinoline-8-carbonitrile] | 22 nM |
| Cc1cc(N2CCN(C[C@H]3CN(c4ccc(C#N)c5ncccc45)C[C@@H](C)O3)CC2)nc(N2C[C@H](N)C[C@@H](F)C2)n1 (relative stereo) [Example 75, 5-[(2R,6S)-2-methyl-6-[[4-[6-methyl-2-[trans-3-amino-5-fluoro-1-piperidyl]pyrimidin-4-yl]piperazin-1-yl]methyl]morpholin-4-yl]quinoline-8-carbonitrile] | 25 nM |
| Cc1cc(N2CCN(C[C@H]3CN(c4ccc(C#N)c5ncccc45)C[C@@H](C)O3)CC2)nc(N2CC[C@@H](F)[C@@H](N)C2)n1 [Example 83, 5-[(2R,6S)-2-methyl-6-[[4-[6-methyl-2-[(3S,4R)-3-amino-4-fluoro-1-piperidyl]-pyrimidin-4-yl]piperazin-1-yl]methyl]morpholin-4-yl]quinoline-8-carbonitrile] | 32 nM |
| Cc1cc(N2CCN(C[C@H]3CN(c4ccc(C#N)c5ncccc45)C[C@@H](C)O3)CC2)nc(NC2CNCC2F)n1 (stereo in doubt) [Example 73, 5-[(2S,6R)-2-[[4-[2-[[(3S,4R)-4-fluoropyrrolidin-3-yl]amino]-6-methyl-pyrimidin-4-yl]piperazin-1-yl]methyl]-6-methyl-morpholin-4-yl]quinoline-8-carbonitrile] | 49 nM |

Continued, values first:

| IC50 | SMILES |
| --- | --- |
| 10 nM | Cc1cc(N2CCN(C[C@H]3CN(c4ccc(C#N)c5ncccc45)C[C@@H](C)O3)CC2)nc(N2CC[C@@H](F)C(N)C2)n1 (single isomer, unassigned) [Example 84] |
| 21 nM | COC1CN(c2nc(C)cc(N3CCN(C[C@H]4CN(c5ccc(C#N)c6ncccc56)C[C@@H](C)O4)CC3)n2)CC1N (single isomer, unassigned) [Example 88] |
| 8 nM | Cc1cc(N2CCN(C[C@H]3CN(c4ccc(C#N)c5ncccc45)C[C@@H](C)O3)CC2)nc(N2CC(N)C2)n1 [Example 87, 5-[(2S,6R)-2-[[4-[2-(3-aminoazetidin-1-yl)-6-methyl-pyrimidin-4-yl]piperazin-1-yl]methyl]-6-methyl-morpholin-4-yl]quinoline-8-carbonitrile] |
| 21 nM | Cc1cc(N2CCN(C[C@H]3CN(c4ccc(C#N)c5ncccc45)C[C@@H](C)O3)CC2)nc(N2C[C@@H](N)[C@H](F)C2)n1 [Example 79, 5-[(2S,6R)-2-[[4-[2-[(3R,4R)-3-amino-4-fluoro-pyrrolidin-1-yl]-6-methyl-pyrimidin-4-yl]piperazin-1-yl]methyl]-6-methyl-morpholin-4-yl]quinoline-8-carbonitrile] |
| 20 nM | Cc1cc(N2CCN(C[C@H]3CN(c4ccc(C#N)c5ncccc45)C[C@@H](C)O3)CC2)nc(N[C@@H]2CNC[C@H]2F)n1 [Example 76, 5-[(2S,6R)-2-[[4-[2-[[(3R,4R)-4-fluoropyrrolidin-3-yl]amino]-6-methyl-pyrimidin-4-yl]piperazin-1-yl]methyl]-6-methyl-morpholin-4-yl]quinoline-8-carbonitrile] |
| 11 nM | CO[C@H]1CN(c2nc(C)cc(N3CCN(C[C@H]4CN(c5ccc(C#N)c6ncccc56)C[C@@H](C)O4)CC3)n2)C[C@@H]1N (single isomer, unassigned) [Example 69A] |
| 20 nM | Cc1cc(N2CCN(C[C@H]3CN(c4ccc(C#N)c5ncccc45)C[C@@H](C)O3)CC2)nc(N2CC[C@@H](N)[C@@H](F)C2)n1 [Example 78, 5-[(2S,6R)-2-[[4-[2-[(3S,4R)-4-amino-3-fluoro-1-piperidyl]-6-methyl-pyrimidin-4-yl]piperazin-1-yl]methyl]-6-methyl-morpholin-4-yl]quinoline-8-carbonitrile] |
| 7 nM | CO[C@@H]1CN(c2nc(C)cc(N3CCN(C[C@H]4CN(c5ccc(C#N)c6ncccc56)C[C@@H](C)O4)CC3)n2)C[C@H]1N (single isomer, unassigned) [Example 69B] |
| 6 nM | C[C@@H]1CN(c2ccc(C#N)c3ncccc23)C[C@H](CN2CCN(c3ccccc3C3CNCCO3)CC2)O1 (stereo partly drawn) [Example 89, 5-[(2R,6S)-2-methyl-6-[[4-(2-morpholin-2-ylphenyl)piperazin-1-yl]methyl]morpholin-4-yl]quinoline-8-carbonitrile] |
| 6 nM | CO[C@@H]1CN(c2nc(C)cc(N3CCN(C[C@H]4CN(c5ccc(C#N)c6ncccc56)C[C@@H](C)O4)CC3)n2)C[C@@H]1N [Example 72, 5-[(2S,6R)-2-[[4-[2-[(3S,4R)-3-amino-4-methoxy-pyrrolidin-1-yl]-6-methyl-pyrimidin-4-yl]piperazin-1-yl]methyl]-6-methyl-morpholin-4-yl]quinoline-8-carbonitrile] |
